Data as given in patent EP4656642A1, “ESTROGEN RECEPTOR PROTEOLYSIS TARGETING CHIMERA COMPOUND AND USE THEREOF” (GAN & LEE PHARM CO., LTD, priority 2023, dated 2024).

Columns and labels:
Type in all cases: cell-based
[1] = biological target: T1, ERα (Homo sapiens, UniProt P03372); assay: Degradation of ERα in T-47D cells (immunoblotting, 4 h); parameters: host or cells: T-47D
T1 sequence (P03372 1-595): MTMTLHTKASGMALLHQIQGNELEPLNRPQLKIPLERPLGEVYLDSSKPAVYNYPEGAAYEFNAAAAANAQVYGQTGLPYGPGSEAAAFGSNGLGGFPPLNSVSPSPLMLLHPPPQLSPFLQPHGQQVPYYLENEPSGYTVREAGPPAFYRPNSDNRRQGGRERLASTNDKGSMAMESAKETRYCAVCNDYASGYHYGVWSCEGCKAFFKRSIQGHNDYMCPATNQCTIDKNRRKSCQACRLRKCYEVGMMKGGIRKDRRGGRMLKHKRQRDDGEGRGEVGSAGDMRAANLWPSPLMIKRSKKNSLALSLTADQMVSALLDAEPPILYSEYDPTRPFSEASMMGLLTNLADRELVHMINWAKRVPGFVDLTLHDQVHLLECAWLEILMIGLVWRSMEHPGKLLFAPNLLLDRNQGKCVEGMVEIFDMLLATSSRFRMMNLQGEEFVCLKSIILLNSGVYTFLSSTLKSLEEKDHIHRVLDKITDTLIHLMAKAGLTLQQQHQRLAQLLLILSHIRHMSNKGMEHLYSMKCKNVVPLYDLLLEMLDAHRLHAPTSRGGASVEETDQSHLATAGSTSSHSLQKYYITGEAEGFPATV
Procedure, shortened: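 ERα protein levels were assessed by immunoblot of RIPA lysates (with protease inhibitor) after 4 h exposure at 37°C. Compound was added in DMSO to T-47D cells at final concentrations of 0.15-1000 nM.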

[2] = system: T-47D cells; assay: Inhibition of cell proliferation in T-47D cells (CCK-8, 6 days); conditions: 6 days of treatment
Description: Test Example 2: Inhibitory effect of the PROTAC compounds provided in the present disclosure on cell proliferation in T-47D cells (source ATCC)
The complete medium required for T-47D cells was 1640 ( ATCC, Product number: A10491-01) basal medium containing 10% fetal bovine serum. T-47D cells were inoculated in 96-well plates at a density of 3,000 cells/well, and different concentrations of the PROTAC compounds 1-55 provided in the examples of the present disclosure and a positive control sample ARV-471 (source: Innochem) were prepared to treat cells, and the cells were treated at 37°C in a cell culture incubator with 5% CO2 for 6 days. Cell viability was detected using a CCK-8 kit (Beyotime, Product number: C0040) according to the manufacturer's instructions. […] Table 2 IC50 values for inhibition of the proliferation of T-47D cells by the PROTAC compounds provided by the present disclosure and the positive control sample

[3] = system: MCF-7 cells; assay: Inhibition of cell proliferation of MCF-7 cells (CCK-8, 9 days)
Procedure, shortened: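 Read-out was CCK-8 viability after 9-day continuous exposure (37°C, 5% CO2) of MCF-7 cells plated at 800/well in 10% FBS DMEM across several compound concentrations. Values are proliferation IC50s.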

[4] = biological target: T1, ERα; assay: Degradation of ERα in MCF-7 cells (immunoblotting, 4 h)
Procedure, shortened: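 Degradation rate reflects ERα band intensity, corrected to an internal reference protein, relative to control. Values come from Western blotting of lysates from MCF-7 cells exposed 4 h at 37°C to compounds at final concentrations of 0.15-1000nM.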

[5] = treated for 9 days, CCK-8 kit (Table 6)

| Degradation rate (%) of ERα in T-47D cells ([1]; 1nM compound) [%] | Degradation rate (%) of ERα in T-47D cells ([1]; 10nM compound) [%] | IC50 ([2]; Table 3) [nM] | IC50 [3, 5] [nM] | Degradation rate (%) of ERα in MCF-7 cells ([4]; 1nM compound) [%] | Degradation rate (%) of ERα in MCF-7 cells ([4]; 10nM compound) [%] | IC50 ([2]; Table 2) [nM] | IC50 ([3]; 9 days of treatment, CCK-8, Table 5) [nM] | Structure (SMILES) |
| --- | --- | --- | --- | --- | --- | --- | --- | --- |
| 64 | 68 | 1 | 45.3 | 54 | 61 |  |  | C[C@@H]1CN(C(=O)C2CCN(c3cc(F)c(C4c5ccc6[nH]ncc6c5C[C@@H](C)N4CC(F)F)c(F)c3)CC2)CCC1N1CCC2(CC1)COc1c2ccc2c1CN(C1CCC(=O)NC1=O)C2=O (stereo partly drawn) [B40] |
| 65 | 72 | 1.18 | 66.8 | 57 | 54 |  |  | CC(C(=O)N1CCC2(CC1)COc1c2ccc2c1CN(C1CCC(=O)NC1=O)C2=O)N1CCC2(CCN(c3ccc([C@@H]4c5ccc(O)cc5CC[C@@H]4c4ccccc4)cc3)CC2)C1 (stereo partly drawn) [A88] |
| -11 | -15 | 10.4 | 330 | 12 | -2 |  |  | O=C1CCC(N2Cc3ccc4c(c3C2=O)OC2(CC4)CCN(CC3CCN(c4ccc([C@@H]5c6ccc(O)cc6CC[C@@H]5c5ccccc5)cc4)CC3)CC2)C(=O)N1 (stereo partly drawn) [H7] |
| 38 | 71 | 26.9 | 7370 | 38 | 60 |  |  | C[C@@H]1Cc2c(ccc3[nH]ncc23)C(c2ccc(N3CCC(N4CC[C@@H](N5CCC6(CC5)COc5c6ccc6c5CN(C5CCC(=O)NC5=O)C6=O)[C@@H](F)C4)CC3)cn2)N1CC(F)(F)F (stereo partly drawn) [H57] |
| 66 | 77 | 10.1 | 63.3 | 48 | 47 |  |  | C[C@@H]1Cc2c(ccc3[nH]ncc23)[C@@H](c2ccc(N3CCN(C[C@H]4CC[C@H](C(=O)N5CCC6(CC5)COc5c6ccc6c5CN(C5CCC(=O)NC5=O)C6=O)CC4)CC3)cn2)N1CC(F)(F)F (stereo partly drawn) [A117] |
| 56 | 73 | 1.57 | 3.5 | 32 | 64 |  |  | O=C1CCC(N2Cc3c(ccc4c3OCC43CCN(C(=O)C4CCN(C5CCN(c6ccc([C@@H]7c8ccc(O)cc8CC[C@@H]7c7ccccc7)cc6)CC5)CC4)CC3)C2=O)C(=O)N1 (stereo partly drawn) [H22] |
| 28 | 23 | 1.61 | 25200 | 25 | 4 |  |  | O=C1CCC(N2Cc3c(ccc4c3OCC43CCN(C4CCN(CC5CCN(c6ccc([C@@H]7c8ccc(O)cc8CC[C@@H]7c7ccccc7)cc6)CC5)C(=O)C4)CC3)C2=O)C(=O)N1 (stereo partly drawn) [A116] |
| -17 | -4 | 33 | 950 | -8 | -11 |  |  | O=C1CCC(N2Cc3cc4c(cc3C2=O)CCC2(CN(CC3CC5(CCN(c6ccc([C@@H]7c8ccc(O)cc8CC[C@@H]7c7ccccc7)cc6)CC5)C3)C2)O4)C(=O)N1 (stereo partly drawn) [B12] |
| -1 | 11 | 15.9 | 35.5 | 4 | 28 |  |  | O=C1CCC(N2Cc3c(ccc4c3OCC43CCN(C4CCC(Oc5ccc([C@@H]6c7ccc(O)cc7CC[C@@H]6c6ccccc6)cc5)CC4)CC3)C2=O)C(=O)N1 (stereo partly drawn) [H12] |
| -1 | 49 | 1.11 | 325 | 2 | 33 |  |  | CC(C)(C(=O)N1CCC2(CC1)COc1c2ccc2c1CN(C1CCC(=O)NC1=O)C2=O)N1CCC2(CCN(c3ccc([C@@H]4c5ccc(O)cc5CC[C@@H]4c4ccccc4)cc3)CC2)C1 (stereo partly drawn) [A91] |
| 21 | 56 | 5.34 | 48.6 | 32 | 63 |  |  | CC1CN(C2CCN(c3ccc([C@@H]4c5ccc(O)cc5CC[C@@H]4c4ccccc4)cc3)CC2)CCC1N1CCC2(CC1)COc1c2ccc2c1CN(C1CCC(=O)NC1=O)C2=O (stereo partly drawn) [K19] |
| 23 | 71 | 8.02 | 19 | 18 | 57 |  |  | O=C1CCC(N2Cc3c(ccc4c3OCC43CCN(C4CCC5(CC4)CCN(c4ccc([C@@H]6c7ccc(O)cc7CC[C@@H]6c6ccccc6)cc4)CC5)CC3)C2=O)C(=O)N1 (stereo partly drawn) [L15] |
| 37 | 66 | 3.87 | < 0.256 | 10 | 45 |  |  | O=C1CCC(N2Cc3cc4c(cc3C2=O)CCC2(CN(C3CCN(C5CCN(c6ccc([C@@H]7c8ccc(O)cc8CC[C@@H]7c7ccccc7)cc6)CC5)CC3)C2)O4)C(=O)N1 (stereo partly drawn) [A53] |
| 23 | 66 | 1.54 | 70 | 14 | 35 |  |  | O=C1CCC(N2Cc3cc4c(cc3C2=O)OCC42CCN(C3CCC4(CC3)CN(c3ccc([C@@H]5c6ccc(O)cc6CC[C@@H]5c5ccccc5)cc3)C4)CC2)C(=O)N1 (stereo partly drawn) [K17] |
| 67 | 85 | 2.07 | 10.5 | 44 | 64 |  |  | O=C1CCC(N2Cc3c(ccc4c3OCC43CCN(C(=O)CN4CC5(CCN(c6ccc([C@@H]7c8ccc(O)cc8CC[C@@H]7c7ccccc7)cc6)CC5)C4)CC3)C2=O)C(=O)N1 (stereo partly drawn) [K8] |
| 63 | 79 | 1.41 | 10.6 | 55 | 64 |  |  | O=C1CCC(N2Cc3c(ccc4c3OCC43CCN(C(=O)C4CCN(C5CCN(c6ccc([C@@H]7c8ccc(O)cc8CC[C@@H]7c7ccccc7)cc6)CC5)CC4)CC3)C2=O)C(=O)N1 (stereo partly drawn) [K7] |
| 37 | 74 | 5.78 | 0.115 | -1 | 62 |  |  | C[C@@H]1C[C@H](N2CCC3(CC2)COc2c3ccc3c2CN(C2CCC(=O)NC2=O)C3=O)CCN1C1CC2(CCN(c3ccc([C@@H]4c5ccc(O)cc5CC[C@@H]4c4ccccc4)cc3)CC2)C1 (stereo partly drawn) [H30] |
|  | 33 | 31 | 6.57 |  | 16 | 2.9 | 90 | O=C1CCC(N2Cc3cc4c(cc3C2=O)OC2(CC4)CN(C3CCC4(CC3)CN(c3ccc(C5c6ccc(O)cc6CCC5c5ccccc5)cc3)C4)C2)C(=O)N1 (stereo not drawn) [B8] |

| Structure (SMILES) | Degradation rate (%) of ERα in T-47D cells ([1]; 1nM compound) [%] | Degradation rate (%) of ERα in T-47D cells ([1]; 10nM compound) [%] | IC50 ([2]; Table 3) [nM] | IC50 [3, 5] [nM] | Degradation rate (%) of ERα in MCF-7 cells ([4]; 1nM compound) [%] | Degradation rate (%) of ERα in MCF-7 cells ([4]; 10nM compound) [%] | IC50 ([2]; Table 2) [nM] | IC50 ([3]; 9 days of treatment, CCK-8, Table 5) [nM] |
| --- | --- | --- | --- | --- | --- | --- | --- | --- |
| O=C1CCC(N2Cc3ccc4c(c3C2=O)OC2(CC4)CCN(C3CC4(CCN(c5ccc([C@@H]6c7ccc(O)cc7CC[C@@H]6c6ccccc6)cc5)CC4)C3)CC2)C(=O)N1 (stereo partly drawn) [A45] | -6 | -28 | 79 | 160 | -3 | -15 |  |  |
